One data set relates to MCF-7. The data set is described as follows: MTS cell proliferation assay, MCF-7. Format: cell-based, human. The method, boiled down:
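MCF-7 human breast cancer cells were exposed to test compounds at a range of concentrations, then proliferation was measured with the MTS reagent from Promega's CellTiter 96 AQueous Non-Radioactive Cell Proliferation Assay kit. After 1 hr at 37° C., OD at 550 nm was read on a 96-well iMark Microplate Absorbance Reader, with quadruplicate wells per concentration.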
Background: Formazan colour is commonly taken as a measure of viable cells.

The subject of the next data set is MDA-MB-361. The data set is described as follows: MTS cell proliferation assay, MDA-MB-361. Format: cell-based. The conditions noted are these: Homo sapiens, ER-positive breast cancer, 72 hrs, >10 = no effect, read-out: IC50 MDA-MB-361 (Table 1). How it is done: (§1) Cancer cells (breast cancer cell lines MCF-7, MDA-MB-361, SKBR3 and MDA-MB-231, pancreatic cancer cell lines AsPC-1. BxPC3 and Panc-1) were seeded in 96-well plates at a density of 1000-2000 cells/well and treated with DMSO, 0.01, 0.1, 1, 5, 10, and […] of STAT3 individual inhibitors for 72 hrs. Proliferation was measured by treating cells with the 3-(4,5-dimethylthiazol-2-yl)-5-(3-carboxymethoxyphenyl)-2-(4-sulfophenyl)-2H-tetrazolium) (MTS) in a CellTiter 96t AQueous Non-Radioactive Cell Proliferation Assay kit from Promega, Madison, Wis., USA). Absorbance of all wells was determined by measuring OD at 550 nm after 1 hr incubation at 37° C. on a 96-well iMark™ Microplate Absorbance Reader (BioRad, Hercules, Calif.). Each individual compound was tested in quadruplicate wells for each concentration, and the results were reported as mean absorption±s.e.

The test system of another data set is MDA-MB-231. The data set can be described thus: MTS cell proliferation assay, MDA-MB-231. Format: cell-based, human. Summed up:
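Cells are exposed to DMSO or STAT3 inhibitors at 0.01-100 μM for 72 h, or at 1, 5 and 10 μM. Proliferation is read by MTS absorbance at 550 or 560 nm after 1 h at 37 °C. Each concentration is run in quadruplicate wells.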

A further data set deals with AsPC1. The data set is described as follows: MTS cell proliferation assay, AsPC1. It counts as cell-based, human. How it is done: as §1
(§2) In Vitro Determination of Effects of Synthesized Compounds on Cancer Cell Proliferation. Cancer cells (breast cancer cell lines MCF-7 and MDA-MB-231, pancreatic cancer cell lines AsPC-1 and Panc-1) were seeded in 96-well plates at a density of 2×10^3 cells/well and treated with DMSO, 0.01, 0.1, 1, 5, 10, and 100 μM of individual STAT3 inhibitors for 72 h. Proliferation was measured by treating cells with the 3-(4,5-dimethylthiazol-2-yl)-5-(3-carboxymethoxyphenyl)-2-(4-sulfophenyl)-2H-tetrazolium) (MTS) in a CellTiter 96t Aqueous Non-Radioactive Cell Proliferation Assay kit (Promega, Madison, Wis., USA). Absorbance of all wells was determined by measuring OD at 550 nm after 1 h incubation at 37° C. on a 96-well iMark™ Microplate Absorbance Reader (BioRad, Hercules, Calif.). Each individual compound was tested in quadruplicate wells for each concentration.

In the next data set the test system is BxPc-3H. The data set can be described thus: MTS cell proliferation assay, BxPc-3H. It counts as cell-based. As to conditions: Homo sapiens; pancreatic cancer, 72 hrs; >10 = no effect; read-out: IC50 BxPc-3H (Table 1). How it is done:
as §1

A further data set has as its system Panc-1. The data set can be described thus: MTS cell proliferation assay, Panc-1. It counts as cell-based, human. The procedure:
as §1, §2

For data set [1], the system named is MDA-MB-231 xenograft tumors. The data set can be described thus: MDA-MB-231 xenograft tumor growth in nude mice. As to conditions: i.p., 2.5, 7.5 and 12.5 mg/kg. Format: in vivo.
In data set [2] the test system is MCF-7, MDA-MB-231, AsPC1 and Panc-1. The data set is described as follows: MTS proliferation assays, breast and pancreatic cancer cell line panel. Format: cell-based, human. The conditions noted are these: Example 4 numbering. How it is done:
as §2

In data set [3] the test system is STAT3 promoter activity in MDA-MB-231 cells. The data set is described as follows: Transient transfection and dual luciferase reporter assay (pSTAT3-Luc). Format: cell-based, human. As to conditions: Homo sapiens, MDA-MB-231, read-out: inhibition of STAT3 promoter activity at 5 μM; 24 h, compared with control; Example 4 numbering. How it is done:
MDA-MB-231 cells were pre-treated with niclosamide or 11 at different concentrations for 24 h. The STAT3 promoter activity in MDA-MB-231 cells was determined after transient transfecting with pSTAT3-Luc vector.
Transient Transfection and Dual Luciferase Reporter Assays. MBA-MB-231 cells were seeded in 24-well plate at a density of 5×10^4 cells/well in RPMI-1640 medium containing 10% FBS and 1% penicillin-streptomycin. Transient transfections were performed 4 h after plating, using the method described previously (Rees, D. C. et al., 2004; Shen, Q. et al., 2008). Total amount of DNA for transfections was 0.5 μg/well, including pSTAT3-Luc (95%, obtained from Panomics, Cat# LR0077) and internal control vector renilla (5%, from Promega, Madison, Wis., USA). 5 h after transfection, the cells were treated with compound […] for 24 h, then reporter activity was evaluated using dual luciferase reporter assay kit (Promega, Madison, Wis., USA) on an Omega™ Microplate Luminometer (BMG LABTECH Inc., NC, USA). Relative luciferase units were the ratio of the absolute activity of firefly luciferase to that of renilla luciferase. Experiments were conducted with triplicates and results are representatives of at least 3 independent experiments.
On the technique in general: Reporter assays use an easily measured gene product as a stand-in for the process of interest.

Data set [4] is classed as in vivo. The conditions noted are these: mouse, in vivo, 150 mg/kg.
Procedure: Female nude mice at 4 to 6 wk of age were obtained from MDACC ERO facility. The mice were maintained in a barrier unit with 12 hours light-dark switch room and all materials were autoclaved. Freshly harvested MDA-MB-231 cells (2.5×10^6 cells per mouse, resuspended in 100 μl PBS) were injected into the 3rd mammary fat pad of the mice, and then mice were randomly assigned into control and treatment groups (≧6 mice per group). Treatment started when the xenograft mammary tumors reaches a volume of 200 mm^3. […] Mice were monitored daily for general health conditions (body weight, fur coat condition and posture) and toxicity (hair loss, skin rash, abdominal distension). […] Tumor volume was calculated as V=W^2×L/2, where L=longer diameter (mm) and W=width of short diameter (mm). […]
Female nude mice were obtained from MDACC and were used for orthotopic tumor studies at 4 to 6 weeks of age. […] Body weights and tumors volume were measured daily and tumor volume was calculated according to the formula V=0.5×L×W^2, where L=length (mm) and W=width (mm).
Twenty-two female nude mice (8 wks of age) were obtained from MDACC ERC Center. […] Body weights and tumors volume were measured daily and tumor volume calculated using the formula V=0.5×L×W^2, where L=length (mm) and W=width (mm) of xenograft tumors. Signs of toxicity were recorded individually. […]
[5] abbreviates: Homo sapiens, MCF7, Example 4 numbering, 72 h, >10 = no effect, read-out: IC50 MCF-7 (Table 5).
Setting [6] is: Homo sapiens, MDA-MB-231, Example 4 numbering, 72 h, >10 = no effect, read-out: IC50 MDA-MB-231 (Table 5).

Like-named read-outs stand apart in the source and are kept apart here. Bounds are passed on as bounds.

The term IC50 denotes the point on the concentration scale where inhibition reaches its midpoint. A word on the melting point: it is the temperature of the solid-liquid transition. For orientation: inhibition means how much of the control response was suppressed.

`NCCOc1ccc(Cl)cc1C(=O)Nc1ccc([N+](=O)[O-])cc1Cl` [HJC-1-52, 2-(2-Aminoethoxy)-5-chloro-N-(2-chloro-4-nitrophenyl)benzamide]: the IC50 came to 910 nM in the data set with MCF-7 (Homo sapiens, MCF7, 72 h, read-out: IC50 MCF-7 (Table 1)); 2370 nM with MDA-MB-361; 1640 nM with MDA-MB-231 (Homo sapiens, MDA-MB-231, ER-negative breast cancer, 72 hrs, >10 = no effect, read-out: IC50 MDA-MB-231 (Table 1)); 1900 nM in the data set with AsPC1 (Homo sapiens, ASPC1, pancreatic cancer, 72 hrs, >10 = no effect, read-out: IC50 AsPC1 (Table 1)); 1070 nM in the data set on BxPc-3H; 1080 nM with Panc-1 (Homo sapiens, PANC-1, pancreatic cancer, 72 hrs, >10 = no effect, read-out: IC50 Panc-1 (Table 1)). Also, the “inhibition on breast cancer cell proliferation (FIG. 1)” value with MCF-7 (MCF-7, 48 hr, μM concentrations) is listed as “significant inhibition”. Moreover, in data set [1], the “growth of xenograft tumors (FIG. 3)” value is given as “significantly suppresses tumor growth”.

`O=C(Nc1ccc2c(c1)S(=O)(=O)C=C2)c1ccncc1` [Compound 21, N-(1,1-Dioxo-1H-1λ^6-benzo[b]thiophen-6-yl)isonicotinamide]: the melting point fell in the range of 251 to 252 °C. Besides, in the data set with MCF-7 (setting [5]), the IC50 is over 10000 nM. In addition, the IC50 with MDA-MB-231 (setting [6]) is over 10000 nM. In addition, the “antiproliferative activity in words (Example 4)” value (from here on “antiproliferative activity”) in data set [2] is “moderate to low antiproliferative activity”.

`O=C(Nc1ccc2c(c1)S(=O)(=O)C=C2)c1ccnc(-c2ccccc2)c1` [Compound 22, N-(1,1-Dioxo-1H-1λ^6-benzo[b]thiophen-6-yl)-2-phenyl-isonicotinamide] returned a melting point of 285 to 286 °C. Also, in the data set with MCF-7 (setting [5]), the IC50 stood at 3780 nM. In addition, the IC50 in the data set on MDA-MB-231 (setting [6]) was determined as 1850 nM. Further, the IC50 in the data set with AsPC1 (Homo sapiens, ASPC1, Example 4 numbering, 72 h, >10 = no effect, read-out: IC50 AsPC1 (Table 5)) is 1300 nM. Also, in the data set on Panc-1 (Homo sapiens, PANC-1, Example 4 numbering, 72 h, >10 = no effect, read-out: IC50 Panc-1 (Table 5)), the IC50 turned out to be 3350 nM. Further, the “antiproliferative activity” value in data set [2] is reported as “low micromolar IC50 values”.

Take `O=C(Nc1ccc2c(c1)S(=O)(=O)C=C2)c1cc(-c2ccccc2)nc2ccccc12` [Compound 5]: the IC50 in the data set with MCF-7 (Homo sapiens, MCF7, 72 h, read-out: IC50 MCF-7 (Table 4)) is 100 nM; in the data set on MCF-7 (Homo sapiens, MCF7, 72 h, read-out: IC50 MCF-7 (Table 5)), 100 nM; with MDA-MB-231 (Homo sapiens, MDA-MB-231, 72 h, read-out: IC50 MDA-MB-231 (Table 4)), 290 nM; in the data set with MDA-MB-231 (Homo sapiens, MDA-MB-231, 72 h, read-out: IC50 MDA-MB-231 (Table 5)), 290 nM; in the data set on AsPC1 (Homo sapiens, ASPC1, 72 h, read-out: IC50 AsPC1 (Table 4)), 1250 nM; in the data set on AsPC1 (Homo sapiens, ASPC1, 72 h, read-out: IC50 AsPC1 (Table 5)) it was 1250 nM. Moreover, the IC50 with Panc-1 (Homo sapiens, PANC-1, 72 h, read-out: IC50 Panc-1 (Table 4)) came to 260 nM; in the data set with Panc-1 (Homo sapiens, PANC-1, 72 h, read-out: IC50 Panc-1 (Table 5)), 260 nM. In addition, the inhibition at 5 µM in data set [3] was about 65%. The “signs of toxicity at 150 mg/kg” value in data set [4] is recorded as “did not show significant signs of toxicity”.

For “Quinoline-3-carboxylic acid (1,1-dioxo-1H-1λ^6-benzo[b]thiophen-6-yl)amide [Compound 23]”, the IC50 in the data set on MCF-7 (Example 4 numbering, 72 h, >10 = no effect, read-out: IC50 MCF-7 (Table 5)) is 2970 nM; in the data set on MDA-MB-231 (Example 4 numbering, 72 h, >10 = no effect, read-out: IC50 MDA-MB-231 (Table 5)), 6210 nM; with AsPC1 (Example 4 numbering, 72 h, >10 = no effect, read-out: IC50 AsPC1 (Table 5)), 6970 nM; in the data set on Panc-1 (Example 4 numbering, 72 h, >10 = no effect, read-out: IC50 Panc-1 (Table 5)) it was 7920 nM. The “antiproliferative activity” value in data set [2] was “moderate to low antiproliferative activity”.

For the origin of these results see patent US9884863B2, “STAT3 inhibitor” (Board of Regents, The University of Texas System, priority 2013, dated 2018).
